Data from publication PMC7983974 (Basic & Clinical Pharmacology & Toxicology, 2020).
pIC50: −log10 of the molar value.

Experiments:
[1] = target: T1, UGT-mediated glucuronidation of molidustat in human liver microsomes (HLMs) (Homo sapiens, UniProt P22309); test: Inhibition of M1 formation from molidustat in pooled human liver microsomes; format: in vitro ADME; conditions: pooled HLMs 0.3 mg/mL, molidustat 5 µmol/L, 30 min, N=1; Table 1
T1 sequence (P22309 26-533): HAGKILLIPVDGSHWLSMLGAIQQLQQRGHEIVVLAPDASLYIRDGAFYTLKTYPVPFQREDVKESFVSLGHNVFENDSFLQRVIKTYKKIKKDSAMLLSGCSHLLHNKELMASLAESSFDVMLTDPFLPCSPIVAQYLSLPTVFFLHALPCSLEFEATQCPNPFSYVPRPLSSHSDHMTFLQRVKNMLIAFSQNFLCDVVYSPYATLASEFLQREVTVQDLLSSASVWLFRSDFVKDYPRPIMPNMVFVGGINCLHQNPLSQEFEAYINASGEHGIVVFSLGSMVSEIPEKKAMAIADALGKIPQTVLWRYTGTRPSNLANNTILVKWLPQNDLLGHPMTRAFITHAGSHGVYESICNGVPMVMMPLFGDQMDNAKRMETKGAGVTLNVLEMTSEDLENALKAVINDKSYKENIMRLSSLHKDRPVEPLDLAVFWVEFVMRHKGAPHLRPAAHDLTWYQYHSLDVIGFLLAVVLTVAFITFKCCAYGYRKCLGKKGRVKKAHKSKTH

[2] = test system: pooled human intestine microsomes; test: Isoform-specific UGT inhibitors on M1 formation in human intestine microsomes; format: in vitro ADME; conditions: inhibitor 10 µmol L^−1; molidustat 4.9 µmol L^−1; n = 2
[3] = test system: pooled human liver microsomes; test: Isoform-specific UGT inhibitors on M1 formation in human liver microsomes; format: in vitro ADME; conditions: inhibitor 10 µmol L^−1; for inhibitory activity on M1 formation: liver, intestine and kidney microsomes
[4] = test system: pooled human kidney microsomes; test: Isoform-specific UGT inhibitors on M1 formation in human kidney microsomes; format: in vitro ADME; conditions: inhibitor 10 µmol L^−1; molidustat 4.9 µmol L^−1; n = 2
[5] = target: T2, UGT-mediated glucuronidation of molidustat (M1 formation) (Homo sapiens, UniProt P22309); test: Inhibition of M1 formation from molidustat in pooled human liver microsomes; format: in vitro ADME; conditions: human, pooled human liver microsomes, probe molidustat 5 µmol/L (formation of M1), IC50, pooled HLMs 0.3 mg/mL, N=1, Table 1
T2 sequence (P22309 26-533): T1 sequence (P22309 26-533)

[6] = cited from earlier work
[7] = test system: molidustat glucuronidation (clearance); test: In vitro-in vivo scaling: predicted increase in molidustat AUC; design: species or system human; conditions: fm 0.9; unbound hepatic inlet concentration, ka 0.1 min^−1

Molecule	pIC50 [1]	inhibitory activity on M1 formation [3]	IC50 at 30 min [5] [µM]	further results
Cc1ccc(C)c(OCCCC(C)(C)C(=O)O[C@@H]2O[C@H](C(=O)O)[C@@H](O)[C@H](O)[C@H]2O)c1 [Gemfibrozil glucuronide]	4.02			
Hecogenin		none or very little activity		M1 formation in % of control in microsomal tissue, Intestine [2]: 106.0%; M1 formation in % of control in microsomal tissue, Liver ([3]; molidustat 4.9 µmol L^−1, n = 2): 104.7%; M1 formation in % of control in microsomal tissue, Kidney [4]: 102.4%
C#C[C@]1(O)CC[C@H]2[C@@H]3CCc4cc(O)ccc4[C@H]3CC[C@@]21C [17a‐Ethynylestradiol]	4.97			
Cc1cccc(Nc2ccccc2C(=O)O)c1C [Mefenamic acid]		none or very little activity	16	
Cc1c(F)cccc1NC(=O)Nc1ccc(Cl)c(S(=O)(=O)[C@H]2CCCNC2)c1O [danirixin]				drug excreted as glucuronides [6]: approximately 90%; recovered as directly conjugated parent compound [6]: 80%
C#Cc1cccc(Nc2ncnc3cc(OCCOC)c(OCCOC)cc23)c1 [Erlotinib]			0.13	AUCRinlet, ka 0.1 min^−1 (estimated increase in molidustat AUC) [7]: more than fivefold
